Results taken from paper PMC11840788, “3,3′-Diindolylmethane (DIM): A Molecular Scaffold for Inhibition of WWP1 and WWP2, Members of the NEDD4 Family HECT E3 Ligases” (ACS Omega, 2025).

Assays:
WWP1-2L34H = molecular target: T1, WWP1-2L34H (Homo sapiens, UniProt Q9H0M0); experiment: differential scanning fluorimetry (DSF), WWP1; assay type: binding; conditions: 100 μM compound, 0.1% DMSO, Boltzmann fit
T1 construct: WWP1-WW2-2,3-linker-WW3-WW4-HECT (WWP1-2L34H); His-Trx (3C site) (N, cleaved yes); made in house; host or cells: E. coli BL21-CodonPlus RP (plasmid pET32a-WWP1-2L34H, gift of Dr Wenyu Wen)
T1 sequence (Q9H0M0 379-922 limits assumed): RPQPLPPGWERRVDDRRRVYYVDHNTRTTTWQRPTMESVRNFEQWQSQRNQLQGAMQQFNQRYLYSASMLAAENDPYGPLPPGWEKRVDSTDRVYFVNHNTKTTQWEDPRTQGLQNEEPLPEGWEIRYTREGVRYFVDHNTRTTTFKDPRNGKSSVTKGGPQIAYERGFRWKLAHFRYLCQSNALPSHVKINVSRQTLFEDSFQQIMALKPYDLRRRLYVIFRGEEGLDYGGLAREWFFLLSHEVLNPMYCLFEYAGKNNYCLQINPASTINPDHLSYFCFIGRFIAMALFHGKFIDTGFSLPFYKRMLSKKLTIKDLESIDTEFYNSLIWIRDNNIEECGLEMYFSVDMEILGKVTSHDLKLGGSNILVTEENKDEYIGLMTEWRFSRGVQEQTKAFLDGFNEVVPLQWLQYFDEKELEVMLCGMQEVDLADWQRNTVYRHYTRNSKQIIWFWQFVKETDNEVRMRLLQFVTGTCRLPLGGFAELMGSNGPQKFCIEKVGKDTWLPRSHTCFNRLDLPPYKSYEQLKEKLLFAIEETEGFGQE
From the text: Differential scanning fluorimetry (DSF) was utilized to initially assess interactions of I3C with both WWP1 and WWP2. Although binding of I3C to WWP1 has been reported previously,[25] we wanted to determine whether such interactions are observed with a protein construct containing the WW2 domain, given its proximity to the proposed exo binding site. In this regard, the WWP1-WW2-2,3-linker-WW3-WW4-HECT (WWP1-2L34H) and WWP2-WW2-2,3-linker-HECT (WWP2-LH) constructs were chosen (SI Figure S2) and DSF assays performed using 100 μM I3C (0.1% DMSO) with midpoint melting temperature (Tm) determined by fitting a Boltzmann regression to the melting curve (Figure 2A). Three independent repeat experiments were performed. […] This is in marked contrast to that seen when using the simple WWP1 HECT domain as a target.[30]
A 96 well-plate (MicroAmp Optical) was loaded with 18 μL of 3.8 μM WWP1-2L34H and 2.5 μM WWP2-LH, in their respective buffers (SI Table S5) containing 5 × SYPRO orange dye. […] The plates were briefly centrifuged before the assay was run using an ABI 7500 RT-PCR following the melt curve using ROX (575 nm) as the “preset” fluorescence dye. […] The midpoint melting temperature (Tm) was calculated using a Boltzmann fit to the fluorescence curve using Protein Thermal Shift Software v1.4 (ThermoFisher). […]

WWP1 HECT domain = molecular target: WWP1 HECT domain; set-up: method as in PMID 31097636; conditions: microscale thermophoresis, read-out: KD (dissociation constant) WWP1; cited from earlier work

ΔTm at 100 µM (WWP1-2L34H): 0.47 ± 0.15 °C
Compound: OCc1c[nH]c2ccccc12 [Compound I3C, Indole-3-carbinol, reference compound]
Kd (WWP1 HECT domain): 450 nM
